Test systems include BT-549 breast; CCRF-CEM leukemia; HCT-116 colon; HCT-15 colon; HL-60(TB) leukemia; HOP-92 NSCLC; HS 578T breast; KM12 colon; MCF7 breast; MDA-MB-231 breast; NCI-H23 lung; NCI-H522 lung; NCI/ADR-RES ovarian; OVCAR-3 ovarian; OVCAR-5 ovarian; OVCAR-8 ovarian; RPMI-8226 leukemia; SF-295 CNS; SN12C renal; T-47D breast.
Assay in all cases: NCI anticancer screen, dose series, 48 h

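48-hour exposure; five concentrations; linearly interpolated endpoints. TGI: total growth inhibition.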 Where only a bound is given, the exact number is not on record here.

Take `Oc1ccccc1-c1nn2c(CCCCCCCCc3nnc4sc(-c5ccccc5O)nn34)nnc2s1`: the TGI is over 100 µM in the test on BT-549 breast; 39.3 µM with CCRF-CEM leukemia; over 71.2 µM in the test on HCT-116 colon; over 100 µM with HCT-15 colon; 77.9 µM in the test on HL-60(TB) leukemia; over 100 µM in the test with HOP-92 NSCLC. For the same compound, the TGI was over 100 µM in the test with HS 578T breast; over 100 µM in the test with KM12 colon; over 100 µM with MCF7 breast; over 100 µM in the test with MDA-MB-231 breast; over 100 µM in the test on NCI-H23 lung; 82.5 µM in the test on NCI-H522 lung. The TGI with NCI/ADR-RES ovarian was over 100 µM; with OVCAR-3 ovarian, 64.3 µM; in the test on OVCAR-5 ovarian, over 76.6 µM; with OVCAR-8 ovarian, over 100 µM; in the test with RPMI-8226 leukemia, over 100 µM; with SF-295 CNS, over 100 µM. For the same compound, the TGI was over 100 µM in the test with SN12C renal and 52.1 µM with T-47D breast.

For `C[N+](C)(C)C(C1=CCCC1=O)c1ccccc1` (stereo not given), the TGI in the test with BT-549 breast is 95.5 µM; with CCRF-CEM leukemia, over 100 µM; in the test on HCT-116 colon, 32.1 µM; in the test with HCT-15 colon it was 41.5 µM; with HL-60(TB) leukemia, 66.5 µM; in the test with HOP-92 NSCLC, 85.3 µM. Moreover, the TGI was 66.3 µM in the test with HS 578T breast; 49.1 µM with KM12 colon; 56.7 µM in the test on MCF7 breast; 75.5 µM in the test on MDA-MB-231 breast; over 100 µM in the test with NCI-H23 lung; 35 µM with NCI-H522 lung. Also, the TGI in the test with NCI/ADR-RES ovarian was over 100 µM; in the test on OVCAR-3 ovarian, over 100 µM; in the test on OVCAR-5 ovarian, over 100 µM; with OVCAR-8 ovarian, 65.6 µM; in the test with RPMI-8226 leukemia, 44.2 µM; in the test with SF-295 CNS, over 100 µM. The values for the TGI with SN12C renal and in the test with T-47D breast were 44 µM and over 100 µM, respectively.

Regarding `Cc1ccc(S(=O)(=O)N2CCCSCCN(S(=O)(=O)c3ccc(C)cc3)CCCSCC2)cc1`, the TGI in the test on BT-549 breast, in the test on HCT-116 colon, in the test on HL-60(TB) leukemia, with HOP-92 NSCLC, in the test with HS 578T breast and in the test with KM12 colon was over 100 µM each time. Also, the TGI with MCF7 breast, with MDA-MB-231 breast, in the test on NCI-H23 lung, in the test with NCI/ADR-RES ovarian, with OVCAR-3 ovarian and in the test on OVCAR-5 ovarian was over 100 µM each time. In addition, the TGI in the test on OVCAR-8 ovarian, in the test on RPMI-8226 leukemia, in the test with SF-295 CNS, with SN12C renal and in the test with T-47D breast was over 100 µM in each case.

As for `CNc1nc2c(C)ccc3[nH]c(N(C)C)nc3c-2n1`, the TGI in the test on BT-549 breast was over 100 µM; in the test with CCRF-CEM leukemia it was over 100 µM; in the test with HCT-116 colon, over 100 µM; in the test on HCT-15 colon, over 100 µM; with HL-60(TB) leukemia, 69.5 µM; with HOP-92 NSCLC, over 100 µM. The TGI in the test with HS 578T breast, with KM12 colon, in the test on MCF7 breast, in the test with MDA-MB-231 breast, with NCI-H23 lung and in the test on NCI-H522 lung was over 100 µM throughout. Further, the TGI is over 100 µM with NCI/ADR-RES ovarian; over 100 µM in the test on OVCAR-3 ovarian; over 100 µM with OVCAR-5 ovarian; over 100 µM with OVCAR-8 ovarian; 61.2 µM in the test on RPMI-8226 leukemia; over 100 µM with SF-295 CNS. Besides, the TGI in the test on SN12C renal and in the test on T-47D breast was over 100 µM in each case.

On to `Nc1[nH]c(=S)c2c(N)n[nH]c2c1C(=O)Nc1ccc(Cl)cc1`, for which the TGI in the test with BT-549 breast, with HCT-116 colon, in the test on HCT-15 colon, in the test with HL-60(TB) leukemia, with HOP-92 NSCLC and in the test with HS 578T breast was over 100 µM in each case. Besides, the TGI in the test on KM12 colon, with MCF7 breast, in the test with MDA-MB-231 breast, with NCI-H522 lung, in the test on NCI/ADR-RES ovarian and in the test on OVCAR-3 ovarian was over 100 µM each time. The TGI in the test with OVCAR-5 ovarian, in the test on OVCAR-8 ovarian, with RPMI-8226 leukemia, with SN12C renal and in the test on T-47D breast was over 100 µM throughout.

On to `CCCCCCCCCCCCCCCCOc1ccc(/C=C/C2=[N+](CCCl)CCO2)cc1`, for which the TGI is over 100 µM in the test with BT-549 breast; over 100 µM in the test with CCRF-CEM leukemia; over 100 µM with HCT-116 colon; over 100 µM in the test on HCT-15 colon; 98.6 µM with HL-60(TB) leukemia; over 100 µM in the test on HOP-92 NSCLC. In addition, the TGI with HS 578T breast is over 100 µM; in the test with KM12 colon it was over 100 µM; in the test on MCF7 breast, over 100 µM; in the test on MDA-MB-231 breast, 83.5 µM; in the test with NCI-H522 lung, over 100 µM; in the test with NCI/ADR-RES ovarian, over 100 µM. For the same compound, the TGI with OVCAR-3 ovarian, in the test on OVCAR-5 ovarian, in the test with OVCAR-8 ovarian, in the test on RPMI-8226 leukemia, with SF-295 CNS and in the test on SN12C renal was over 100 µM each time. The compound further yielded a TGI in the test on T-47D breast of over 100 µM.

With `C/C(=C1\C(=O)C(c2ccccc2)N(c2ccccc2)C1=O)c1ccc(Cl)cc1` (stereo not given), the TGI in the test with BT-549 breast was 49.2 µM; in the test on HCT-116 colon it was 36.3 µM; in the test on HCT-15 colon, 43.6 µM; in the test with HL-60(TB) leukemia it was 69.1 µM; in the test on HOP-92 NSCLC it was 13.6 µM; in the test with HS 578T breast it was 40.9 µM. Moreover, the TGI is 57.1 µM in the test on KM12 colon; over 100 µM with MCF7 breast; 57.6 µM with MDA-MB-231 breast; 31.9 µM in the test on NCI-H23 lung; 38.7 µM in the test with NCI-H522 lung; over 100 µM in the test with NCI/ADR-RES ovarian. Also, the TGI was 30.6 µM in the test on OVCAR-3 ovarian; 38.1 µM with RPMI-8226 leukemia; 74.9 µM in the test with SF-295 CNS; 86 µM in the test on SN12C renal; 45.3 µM in the test with T-47D breast.

For `O=c1[nH]c(=O)n2n1C1C=CC2CC1`, the TGI with BT-549 breast, in the test on CCRF-CEM leukemia, in the test on HCT-116 colon, in the test on HCT-15 colon, in the test on HL-60(TB) leukemia and with HOP-92 NSCLC was over 100 µM in each case. For the same compound, the TGI in the test on HS 578T breast, with KM12 colon, in the test on MCF7 breast, with MDA-MB-231 breast, in the test with NCI-H23 lung and in the test on NCI/ADR-RES ovarian was over 100 µM each time. Also, the TGI with OVCAR-3 ovarian, in the test with OVCAR-5 ovarian, with OVCAR-8 ovarian, in the test on RPMI-8226 leukemia, in the test on SF-295 CNS and with SN12C renal was over 100 µM each time. In addition, in the test with T-47D breast, the TGI is over 100 µM.

For the compound `Cc1ccc(NC(=O)/C(=N\NC(N)=O)c2c(O)c3ccccc3[nH]c2=O)cc1`, the TGI in the test on BT-549 breast, in the test with CCRF-CEM leukemia, with HCT-116 colon, with HCT-15 colon, in the test with HL-60(TB) leukemia and in the test on HOP-92 NSCLC was over 100 µM in each case. Besides, the TGI in the test with HS 578T breast, in the test on KM12 colon, in the test on MCF7 breast, with MDA-MB-231 breast, in the test on NCI-H23 lung and in the test on NCI/ADR-RES ovarian was over 100 µM in each case. For the same compound, the TGI with OVCAR-3 ovarian, with OVCAR-5 ovarian, in the test with OVCAR-8 ovarian, in the test on RPMI-8226 leukemia, in the test on SF-295 CNS and in the test with SN12C renal was over 100 µM throughout. Also, in the test on T-47D breast, the TGI is over 100 µM.

Turning to `COCn1c(C)c(C)c2c(=O)oc(C)nc21`, the TGI with BT-549 breast, with CCRF-CEM leukemia, with HCT-116 colon, with HCT-15 colon, in the test on HL-60(TB) leukemia and in the test on HOP-92 NSCLC was over 100 µM in each case. For the same compound, the TGI in the test on HS 578T breast, in the test with KM12 colon, with MCF7 breast, with MDA-MB-231 breast, in the test with NCI-H23 lung and with NCI-H522 lung was over 100 µM in each case. In addition, the TGI in the test with NCI/ADR-RES ovarian, in the test on OVCAR-5 ovarian, in the test with OVCAR-8 ovarian, with RPMI-8226 leukemia, with SF-295 CNS and in the test with SN12C renal was over 100 µM each time. For the same compound, the TGI in the test with T-47D breast is over 100 µM.

For the compound `Nc1c2c(nc3ccccc13)CCCc1ccccc1-2`, the TGI with BT-549 breast was over 100 µM; with HCT-116 colon it was 19.1 µM; in the test on HCT-15 colon it was 35.5 µM; in the test with HL-60(TB) leukemia, 21.4 µM; in the test on HOP-92 NSCLC, 22.6 µM; with HS 578T breast, 52 µM. Besides, the TGI is 31.2 µM in the test on KM12 colon; 29.2 µM with MCF7 breast; 19.8 µM in the test with MDA-MB-231 breast; over 100 µM in the test with NCI-H23 lung; 37.2 µM in the test on NCI-H522 lung; 69.7 µM in the test with NCI/ADR-RES ovarian. Further, the TGI is over 100 µM with OVCAR-3 ovarian; 34.6 µM in the test with OVCAR-5 ovarian; 30.8 µM in the test with OVCAR-8 ovarian; 30.4 µM in the test on RPMI-8226 leukemia; 24 µM in the test with SF-295 CNS; 39.5 µM in the test with SN12C renal. Also, the TGI with T-47D breast was found to be 37.5 µM.

In the case of `CC(=O)OCCOCCN1CCN(c2c(O)c3c(c(O)c2Cl)C(=O)C=CC3=O)CC1`, the TGI came out at 2.21 µM in the test with BT-549 breast; 0.72 µM in the test on HCT-116 colon; 1.23 µM with HCT-15 colon; 0.238 µM in the test on HL-60(TB) leukemia; 0.822 µM in the test on HOP-92 NSCLC; 7.59 µM in the test on HS 578T breast. Further, the TGI in the test with KM12 colon was 4.92 µM; in the test on MCF7 breast, 0.976 µM; in the test with MDA-MB-231 breast, 1.09 µM; with NCI-H23 lung, 1.98 µM; in the test with NCI-H522 lung it was 0.583 µM; with NCI/ADR-RES ovarian it was 1.21 µM. Besides, the TGI is 2 µM in the test with OVCAR-3 ovarian; 2.97 µM in the test on OVCAR-5 ovarian; 2.66 µM in the test on OVCAR-8 ovarian; 1.42 µM with RPMI-8226 leukemia; 3.72 µM in the test on SF-295 CNS; 1.77 µM in the test with SN12C renal. Further, in the test on T-47D breast, the TGI was 2.77 µM.

Values taken from PubChem BioAssay (NCI).
